The values below come from US20250179103A1, “6-OXODECAHYDROPYRROLO[1,2-A][1,5]DIAZOCINE AND 6-OXODECAHYDRO-4H-PYRROLO[2,1-D][1,5]THIAZOCINE DERIVATIVES AS STAT3 AND STAT6 MODULATORS FOR THE TREATMENT OF CANCER AND INFLAMMATORY CONDITIONS” (Recludix Pharma, Inc., priority 2022, published 2025).

A value given as a limit tells only on which side of the number the result lay.

The experiment relates to pY641-STAT6 in Peripheral Blood Mononuclear Cells (PBMC). Kind of experiment: MSD-pSTAT-PBMC Assay (pSTAT6, IL-4 stimulated). The following applies: Homo sapiens, compound 3 hrs, then 1 ng/mL IL-4 for 10 min. It counts as cell-based, Human. The text has this: Cryopreserved Peripheral Blood Mononuclear Cells (PBMC) are from AllCells. Recombinant Human IL-4 and IL-6 are from Peprotech. Mouse monoclonal anti-STAT3 antibody, rabbit monoclonal anti-pY705-STAT3 antibody, rabbit monoclonal Anti-pY641-STAT6 antibody, and lysis buffer are from Cell Signaling Technology (CST). Mouse monoclonal anti-STAT6 antibody is from BioLegend. Assay plates, blocker, and anti-rabbit secondary antibody are from Meso Scale Discovery (MSD).
Cryopreserved PBMCs were thawed out and allowed to recover overnight in IMDM+10% heat-inactivated FBS prior to plating 50,000 (STAT3) or 25,000 (STAT6) cells per well in 96-well U-bottom tissue culture plates. Cells were treated with compound for 3 hrs, then stimulated with 10 ng/mL IL-6 (STAT3) or 1 ng/mL IL-4 (STAT6) for 10 min. Cells were then spun down and washed with ice-cold PBS prior to lysing the cell pellet with 1× lysis buffer (CST) with 1×HALT protease and phosphatase inhibitor cocktail (Thermo). Lysates were transferred to and incubated overnight at 4° C. with shaking in QuickPlex 96-well high bind assay plates (MSD) pre-coated overnight with 30 μL per well of 0.6 μg/mL mouse monoclonal anti-STAT3 antibody (STAT3) or 2 μg/mL mouse monoclonal anti-STAT6 antibody (STAT6) in 1×PBS, and pre-blocked for 1 hour with 3% Blocker-A (MSD). Captured protein in the assay plates were then washed and probed with 25 μL per well of 0.25 μg/ml rabbit monoclonal anti-pY705-STAT3 antibody (STAT3) or […] rabbit monoclonal Anti-pY641-STAT6 antibody (STAT6) in 1% Blocker-A for 1 hour at room temperature with shaking, then washed and probed with 25 ul per well of 1 ug/ml Sulfo-TAG Labeled Goat Anti-Rabbit Antibody (MSD) in 1% Blocker-A for 1 hour at room temperature with shaking. Assay plates were then washed and 150 μL of 1× Read Buffer-T (MSD) was added to each well prior to reading on an SQ120 MSD Plate Reader. Assay signal from each sample was subtracted by the signal from unstimulated control wells and normalized to DMSO control wells. IC50 values were calculated using Graph Pad Prism Dose-Response Nonlinear Regression with variable slope. For both pSTAT3 and pSTAT6 A=≤100 nM; B=>100-1000 nM; C=>1000-3000 nM; and D=>3 μM.

Broadly, the IC50 is the concentration needed to halve the response being measured. The molecule `CCCOC(=O)[C@H](C)NP(=O)(Oc1ccccc1)[C@H](F)c1ccc2ccc(C(=O)N[C@H]3CN(C(=O)c4noc5ccc(C)cc45)CC[C@H]4CC[C@@H](C(=O)N5C[C@H](c6ccn(C)c(=O)c6)CC56CC6)N4C3=O)cc2c1` (stereo partly drawn) [Compound 419, propyl (((S)-fluoro(7-(((5S,8S,10aR)-8-((S)-6-(1-methyl-2-oxo-1,2-dihydropyridin-4-yl)-4-azaspiro[2.4]heptane-4-carbonyl)-3-(5-methylbenzo [d]isoxazole-3-carbonyl)-6-oxodeca-hydropyrrolo [1,2-a][1,5]diazocin-5-yl)carbamoyl)naphthalen-2-yl)methyl) (phenoxy)phosphoryl)-L-alaninate] came in with an IC50 of at most 0.1 µM.

Consider `CCCOC(=O)[C@H](C)NP(=O)(Oc1ccccc1)[C@@H](F)c1ccc2ccc(C(=O)N[C@H]3CN(C(=O)c4noc5ccc(C)cc45)CC[C@H]4CC[C@@H](C(=O)N5C[C@@H](c6ccn(C)c(=O)c6)CC56CC6)N4C3=O)cc2c1` (stereo partly drawn) [Compound 420, propyl (((R)-fluoro(7-(((5S,8S,10aR)-8-((R)-6-(1-methyl-2-oxo-1,2-dihydropyridin-4-yl)-4-azaspiro[2.4]heptane-4-carbonyl)-3-(5-methylbenzo [d]isoxazole-3-carbonyl)-6-oxodeca-hydropyrrolo [1,2-a][1,5]diazocin-5-yl)carbamoyl)naphthalen-2-yl)methyl) (phenoxy)phosphoryl)-L-alaninate], for which the IC50 was at most 0.1 µM.

`CCCOC(=O)[C@H](C)NP(=O)(Oc1ccccc1)[C@@H](F)c1ccc2ccc(C(=O)N[C@H]3CN(C(=O)c4noc5ccc(C)cc45)CC[C@H]4CC[C@@H](C(=O)N5C[C@H](c6ccn(C)c(=O)c6)CC56CC6)N4C3=O)cc2c1` (stereo partly drawn) [Compound 421, propyl (((R)-fluoro(7-(((5S,8S,10aR)-8-((S)-6-(1-methyl-2-oxo-1,2-dihydropyridin-4-yl)-4-azaspiro [2.4]heptane-4-carbonyl)-3-(5-methylbenzo [d]isoxazole-3-carbonyl)-6-oxodeca-hydropyrrolo [1,2-a] [1,5]diazocin-5-yl)carbamoyl)naphthalen-2-yl)methyl) (phenoxy)phosphoryl)-L-alaninate] yielded an IC50 of at most 0.1 µM.

Molecule `CCCOC(=O)[C@H](C)NP(=O)(Oc1ccccc1)C(F)c1ccc2ccc(C(=O)N[C@H]3CCN(C(=O)c4cc(C)cc(Cl)c4)C[C@H]4CC[C@@H](C(=O)N5CCOCC5)N4C3=O)cc2c1` (stereo partly drawn) [Compound 422, propyl (((7-(((5S,8S,10aR)-2-(3-chloro-5-methylbenzoyl)-8-(morpholine-4-carbonyl)-6-oxodeca-hydropyrrolo [1,2-a][1,4]diazocin-5-yl)carbamoyl)naphthalen-2-yl)fluoromethyl) (phenoxy)phosphoryl)-L-alaninate] showed an IC50 of 1 to 3 µM.

On to `CCCOC(=O)[C@H](C)NP(=O)(Oc1ccccc1)C(F)c1ccc2ccc(C(=O)N[C@H]3CN(C(=O)c4ncn5ccccc45)CC[C@H]4CC[C@@H](C(=O)N5CCOCC5)N4C3=O)cc2c1` (stereo partly drawn) [Compound 423, propyl ((fluoro(7-(((5S,8S,10aR)-3-(imidazo[1,5-a]pyridine-1-carbonyl)-8-(morpholine-4-carbonyl)-6-oxodecahydro-pyrrolo [1,2-a][1,5]diazocin-5-yl)carbamoyl)naphthalen-2-yl)methyl) (phenoxy)phosphoryl)-L-alaninate], for which the IC50 was above 3 µM.

Take `CCCOC(=O)[C@H](C)NP(=O)(Oc1ccccc1)C(F)c1ccc2ccc(C(=O)N[C@H]3CN(C(=O)c4noc5cc(OC)ccc45)CC[C@H]4CC[C@@H](C(=O)N5CCOCC5)N4C3=O)cc2c1` (stereo partly drawn) [Compound 424, propyl ((fluoro(7-(((5S,8S,10aR)-3-(6-methoxybenzo[d]isoxazole-3-carbonyl)-8-(morpholine-4-carbonyl)-6-oxodeca-hydropyrrolo [1,2-a][1,5]diazocin-5-yl)carbamoyl)naphthalen-2-yl)methyl) (phenoxy)phosphoryl)-L-alaninate]: the IC50 lay within 1 to 3 µM.

On to `CCCOC(=O)[C@H](C)NP(=O)(Oc1ccccc1)C(F)c1ccc2ccc(C(=O)N[C@H]3CN(C(=O)c4noc5c4CCCC5)CC[C@H]4CC[C@@H](C(=O)N5CCOCC5)N4C3=O)cc2c1` (stereo partly drawn) [Compound 425, propyl ((fluoro(7-(((5S,8S,10aR)-8-(morpholine-4-carbonyl)-6-oxo-3-(4,5,6,7-tetrahydro-benzo[d]isoxazole-3-carbonyl)decahydropyrrolo [1,2-a][1,5]diazocin-5-yl)carbamoyl)naphthalen-2-yl)methyl) (phenoxy)phosphoryl)-L-alaninate], for which the IC50 fell in the range of 1 to 3 µM.

Consider `CCCOC(=O)[C@H](C)NP(=O)(Oc1ccccc1)C(F)c1ccc2ccc(C(=O)N[C@H]3CN(C(=O)c4cc5ncccn5n4)CC[C@H]4CC[C@@H](C(=O)N5CCOCC5)N4C3=O)cc2c1` (stereo partly drawn) [Compound 426, propyl ((fluoro(7-(((5S,8S,10aR)-8-(morpholine-4-carbonyl)-6-oxo-3-(pyrazolo[1,5-a]pyrimidine-2-carbonyl)decahydro-pyrrolo [1,2-a][1,5]diazocin-5-yl)carbamoyl)naphthalen-2-yl)methyl) (phenoxy)phosphoryl)-L-alaninate], for which the IC50 is above 3 µM.

The molecule `CCCOC(=O)[C@H](C)NP(=O)(Oc1ccccc1)C(F)c1ccc2ccc(C(=O)N[C@H]3CN(S(=O)(=O)CCC)CC[C@H]4CC[C@@H](C(=O)N5CCOCC5)N4C3=O)cc2c1` (stereo partly drawn) [Compound 427, propyl ((fluoro(7-(((5S,8S,10aR)-8-(morpholine-4-carbonyl)-6-oxo-3-(propylsulfonyl)decahydro-pyrrolo [1,2-a][1,5]diazocin-5-yl)carbamoyl)naphthalen-2-yl)methyl) (phenoxy)phosphoryl)-L-alaninate] had an IC50 above 3 µM.

For the molecule `CCCOC(=O)[C@H](C)NP(=O)(Oc1ccccc1)C(F)c1ccc2ccc(C(=O)N[C@H]3CN(C(=O)c4noc5ccc(OC)cc45)CC[C@H]4CC[C@@H](C(=O)N5CCOCC5)N4C3=O)cc2c1` (stereo partly drawn) [Compound 428, propyl ((fluoro(7-(((5S,8S,10aR)-3-(5-methoxybenzo [d]isoxazole-3-carbonyl)-8-(morpholine-4-carbonyl)-6-oxodecahydro-pyrrolo [1,2-a][1,5]diazocin-5-yl)carbamoyl)naphthalen-2-yl)methyl) (phenoxy)phosphoryl)-L-alaninate], the IC50 was 0.1 to 1 µM.

Molecule `CCCOC(=O)[C@H](C)NP(=O)(Oc1ccccc1)C(F)c1ccc2ccc(C(=O)N[C@H]3CN(C(=O)c4ncn5c4CCCC5)CC[C@H]4CC[C@@H](C(=O)N5CCOCC5)N4C3=O)cc2c1` (stereo partly drawn) [Compound 429, propyl ((fluoro(7-(((5S,8S,10aR)-8-(morpholine-4-carbonyl)-6-oxo-3-(5,6,7,8-tetrahydro-imidazo [1,5-a]pyridine-1-carbonyl)decahydropyrrolo [1,2-a][1,5]diazocin-5-yl)carbamoyl)naphthalen-2-yl)methyl) (phenoxy)phosphoryl)-L-alaninate] came in with an IC50 above 3 µM.

Consider `CCCOC(=O)[C@H](C)NP(=O)(Oc1ccccc1)C(F)c1ccc2ccc(C(=O)N[C@H]3CN(C(=O)c4noc5ccc(Cl)cc45)CC[C@H]4CC[C@@H](C(=O)N5CCOCC5)N4C3=O)cc2c1` (stereo partly drawn) [Compound 430, propyl (((7-(((5S,8S,10aR)-3-(5-chlorobenzo[d]isoxazole-3-carbonyl)-8-(morpholine-4-carbonyl)-6-oxodecahydro-pyrrolo [1,2-a][1,5]diazocin-5-yl)carbamoyl)naphthalen-2-yl)fluoromethyl) (phenoxy)phosphoryl)-L-alaninate], for which the IC50 was at most 0.1 µM.

Turning to `Cc1ccc2[nH]nc(C(=O)N3CC[C@H]4CC[C@@H](C(=O)N5C[C@H](c6cc[nH]c(=O)c6)CC56CC6)N4C(=O)[C@@H](NC(=O)c4ccc5ccc(C(F)(F)P(=O)(OCCSC(=O)CC(C)C)OCCSC(=O)CC(C)C)cc5c4)C3)c2c1` [Compound 431, S,S′-((((difluoro(7-(((5S,8S,10aR)-3-(5-methyl-1H-indazole-3-carbonyl)-6-oxo-8-(6-(2-oxo-1,2-dihydropyridin-4-y1)-4-azaspiro[2.4]heptane-4-carbonyl)dec-ahydropyrrolo [1,2-a][1,5]diazocin-5-yl)carbamoyl)naphthalen-2-yl)methyl)phosphoryl)bis(oxy))bis(ethane-2,1-diyl)) bis(3-methylbutane thioate)], the IC50 is at most 0.1 µM.
